These results are taken from DBAASP.

Holding throughout (test): ≥ marks a high value that may be exact or a test limit, other limits are often not marked, values filed in µg/mL are converted to µM
The test system of assay [1] is Acinetobacter baumannii ATCC 19606.
In assay [2] the test system is Enterococcus faecalis ATCC 29212.
Assay [3] has as its system Escherichia coli ATCC 25922.
In assay [4] the test system is Pseudomonas aeruginosa ATCC 27853.
Assay [5] relates to Staphylococcus aureus ATCC 25923.
In assay [6] the test system is Pseudomonas aeruginosa ATCC 9027.
The subject of assay [7] is Staphylococcus aureus ATCC 6538.
In assay [8] the test system is Staphylococcus aureus NCTC 10788.
In assay [9] the test system is Staphylococcus aureus NCTC 8325.
Another assay deals with Escherichia coli UB1005.
In assay [10] the test system is Salmonella enterica subsp. enterica serovar Typhimurium C77-31.
Assay [11] deals with Staphylococcus aureus ATCC 29213.
For assay [12], the system named is Staphylococcus epidermidis ATCC 12228.
Assay [13] deals with Candida albicans ATCC 2002.
The subject of assay [14] is Candida albicans ATCC 10231.

In general, MIC refers to the lowest concentration found to suppress growth.

Values after ≈ are worked out from the molar mass of the structure shown. Values joined by “and” are separate entries in the source; they are usually repeats but may differ in a detail not shown here. Equal entries are not always repeated. A value given as a limit tells only on which side of the number the result lay.

For `CSCC[C@H](NC(=O)[C@H](CCCCN)NC(=O)[C@H](CC(C)C)NC(=O)[C@H](CC(C)C)NC(=O)[C@H](Cc1cnc[nH]1)NC(=O)[C@@H]1CCCN1C(=O)[C@H](CC(C)C)NC(=O)[C@H](CC(C)C)NC(=O)[C@H](Cc1c[nH]c2ccccc12)NC(=O)[C@H](CC(C)C)NC(=O)[C@H](CCCCN)NC(=O)[C@H](CCC(=O)O)NC(=O)CNC(=O)[C@H](C)NC(=O)[C@@H](NC(=O)[C@H](C)N)C(C)C)C(=O)N[C@@H](CC(C)C)C(=O)N[C@@H](CC(C)C)C(=O)N[C@H](C(=O)N1CCC[C@H]1C(=O)N[C@H](C(=O)N1CCC[C@H]1C(N)=O)[C@@H](C)O)[C@@H](C)O` [AVAGEKLWLLPHLLKMLLTPTP], the MIC is greater than 164 µM in [1]; 164 µM (≈ 400 µg/mL) in [2]; greater than 164 µM in [3]; greater than 164 µM in assay [4]; 164 µM (≈ 400 µg/mL) in assay [5].
Take `CC(C)C[C@H](NC(=O)[C@H](C)NC(=O)[C@H](CCCCN)NC(=O)[C@H](CCCCN)NC(=O)[C@H](Cc1ccccc1)NC(=O)[C@H](C)NC(=O)[C@H](CCCCN)NC(=O)[C@H](C)NC(=O)[C@H](Cc1ccccc1)NC(=O)[C@H](CC(C)C)NC(=O)[C@H](CCCCN)NC(=O)[C@H](C)NC(=O)[C@@H](N)Cc1ccccc1)C(N)=O` [FAKLFAKAFKKAL]: the values for the minimum inhibitory concentration (MIC) in assay [6] and in [7] were 135 µM (≈ 200 µg/mL) and 67.4 µM (≈ 99.9 µg/mL), respectively.
Turning to `CC(C)C[C@H](NC(=O)[C@H](Cc1ccccc1)NC(=O)[C@H](CCCCN)NC(=O)[C@H](CCCCN)NC(=O)[C@H](CC(C)C)NC(=O)[C@H](C)NC(=O)[C@H](CCCCN)NC(=O)[C@H](C)NC(=O)[C@H](CC(C)C)NC(=O)[C@H](CC(C)C)NC(=O)[C@H](CCCCN)NC(=O)[C@H](C)NC(=O)[C@@H](N)Cc1ccccc1)C(N)=O` [FAKLLAKALKKFL], the MIC in assay [6] is 67.1 µM (≈ 99.9 µg/mL); in assay [7] it was 6.71 µM (≈ 9.99 µg/mL).
The matching figures for `CC(C)C[C@H](NC(=O)[C@H](CCCCN)NC(=O)[C@H](CCCCN)NC(=O)[C@H](CC(C)C)NC(=O)[C@H](C)NC(=O)[C@H](CCCCN)NC(=O)[C@H](C)NC(=O)[C@H](CC(C)C)NC(=O)[C@H](CC(C)C)NC(=O)[C@H](CCCCN)NC(=O)[C@H](C)NC(=O)[C@@H](N)Cc1ccccc1)C(N)=O` [FAKLLAKALKKL]: 18.6 µM (≈ 25 µg/mL) and 7.44 µM (≈ 9.99 µg/mL).
For `CC(C)C[C@H](NC(=O)[C@H](C)NC(=O)[C@H](CCCCN)NC(=O)[C@H](CCCCN)NC(=O)[C@H](CC(C)C)NC(=O)[C@H](Cc1ccccc1)NC(=O)[C@H](CCCCN)NC(=O)[C@H](C)NC(=O)[C@H](CC(C)C)NC(=O)[C@H](CC(C)C)NC(=O)[C@H](CCCCN)NC(=O)[C@H](C)NC(=O)[C@@H](N)Cc1ccccc1)C(N)=O` [FAKLLAKFLKKAL] the same measures were 134 µM (≈ 200 µg/mL) and 6.71 µM (≈ 9.99 µg/mL).
As for `CC(C)C[C@H](NC(=O)[C@H](CC(C)C)NC(=O)[C@H](CO)NC(=O)CNC(=O)[C@H](CC(C)C)NC(=O)[C@H](CC(C)C)NC(=O)CNC(=O)[C@H](CC(C)C)NC(=O)[C@@H](N)Cc1ccccc1)C(N)=O` [FLGLLGSLL], the MIC in assay [8] was no less than 34 µM.
Turning to `CC(C)C[C@H](NC(=O)[C@H](CC(C)C)NC(=O)[C@H](CCCCN)NC(=O)[C@H](CCCCN)NC(=O)[C@H](CC(C)C)NC(=O)[C@H](CO)NC(=O)[C@H](CCCCN)NC(=O)[C@H](CC(C)C)NC(=O)[C@@H](N)Cc1ccccc1)C(N)=O` [FLKSLKKLL], the MIC in assay [1] was greater than 117 µM; in assay [3] it was 58.7 µM (≈ 63.9 µg/mL); in assay [4] it was 7.34 µM (≈ 7.99 µg/mL); in assay [5], 117 µM (≈ 128 µg/mL).
`CC[C@H](C)[C@@H]1NC(=O)[C@H](C)NC(=O)[C@@H](NC(=O)[C@H](Cc2ccccc2)NC(=O)[C@@H](NC(=O)[C@H](CCCCN)NC(=O)[C@@H]2CCCN2C(=O)[C@H](CC(C)C)NC(=O)[C@H](Cc2ccccc2)NC(=O)[C@H](CCCCN)NC(=O)[C@H](C)NC(=O)[C@H](C)NC(=O)[C@H](CCSC)NC(=O)CNC(=O)[C@H](C)NC(=O)[C@@H](NC(=O)[C@H](Cc2ccccc2)NC(=O)[C@@H]2CCCN2C(=O)[C@H](CC(C)C)NC(=O)[C@@H](N)Cc2ccccc2)[C@@H](C)CC)[C@@H](C)CC)CSSC[C@@H](C(=O)O)NC(=O)[C@H](CCCCN)NC(=O)[C@H](CCCCN)NC(=O)[C@H](CO)NC1=O` [FLPFIAGMAAKFLPKIFCAISKKC]: in assay [9], the MIC was found to be 2 µM (≈ 5.29 µg/mL).
As for `CC[C@H](C)[C@H](NC(=O)[C@H](Cc1c[nH]c2ccccc12)NC(=O)[C@H](CCCCN)NC(=O)[C@H](CC(C)C)NC(=O)[C@@H](NC(=O)[C@H](CCCCN)NC(=O)CNC(=O)[C@@H](NC(=O)[C@H](CCCCN)NC(=O)[C@H](CCCCN)NC(=O)[C@H](CC(C)C)NC(=O)[C@H](CCCN=C(N)N)NC(=O)[C@H](CCCCN)NC(=O)[C@H](CCCN=C(N)N)NC(=O)[C@@H](NC(=O)[C@H](CCCCN)NC(=O)[C@H](CCCCN)NC(=O)[C@H](CCCN=C(N)N)NC(=O)[C@H](CC(C)C)NC(=O)[C@H](CCCN=C(N)N)NC(=O)[C@H](CCCN=C(N)N)NC(=O)[C@H](Cc1ccccc1)NC(=O)[C@H](CCCN=C(N)N)NC(=O)CN)[C@@H](C)O)[C@@H](C)CC)C(C)C)C(N)=O` [GRFRRLRKKTRKRLKKIGKVLKWI], the MIC in [3] is 1 µM and 2 µM; against Escherichia coli UB1005, 2 µM (≈ 6.13 µg/mL); in assay [10], 1 µM (≈ 3.06 µg/mL); in assay [5], 4 µM (≈ 12.3 µg/mL); in assay [11] it was 2 µM (≈ 6.13 µg/mL); in assay [12] it was 2 µM (≈ 6.13 µg/mL).
Turning to `CC[C@H](C)[C@H](NC(=O)[C@@H](NC(=O)[C@@H](NC(=O)[C@@H]1CCCN1C(=O)[C@H](Cc1c[nH]c2ccccc12)NC(=O)[C@H](Cc1ccccc1)NC(=O)[C@H](CCCN=C(N)N)NC(=O)[C@H](CCCCN)NC(=O)[C@@H](NC(=O)[C@@H](N)CCCN=C(N)N)[C@@H](C)CC)C(C)C)C(C)C)C(=O)N[C@@H](CCCN=C(N)N)C(=O)O` [RIKRFWPVVIR], the MIC in assay [13] is no less than 102 µM.
Regarding `CC(C)C[C@H](NC(=O)[C@H](CCCN=C(N)N)NC(=O)[C@H](CCCCN)NC(=O)[C@H](Cc1c[nH]c2ccccc12)NC(=O)[C@@H](NC(=O)[C@H](CCCCN)NC(=O)[C@H](CCCCN)NC(=O)[C@H](CCCN=C(N)N)NC(=O)[C@H](CC(C)C)NC(=O)[C@H](CCCN=C(N)N)NC(=O)[C@@H](N)CCCN=C(N)N)[C@@H](C)O)C(=O)N[C@@H](Cc1c[nH]c2ccccc12)C(N)=O` [RRLRKKTWKRLW], the MIC was 16 µM (≈ 27.6 µg/mL) in assay [3]; no less than 32 µM in the assay with Escherichia coli UB1005; no less than 64 µM in [10]; greater than 128 µM in assay [5]; 64 µM (≈ 110 µg/mL) in [11]; 64 µM (≈ 110 µg/mL) in [12].
For `CC[C@H](C)[C@H](NC(=O)[C@H](C)NC(=O)[C@H](CCCN=C(N)N)NC(=O)[C@H](Cc1ccc(O)cc1)NC(=O)[C@H](CC(C)C)NC(=O)[C@H](CC(N)=O)NC(=O)[C@H](Cc1ccc(O)cc1)NC(=O)CNC(=O)[C@H](C)NC(=O)[C@@H](NC(=O)[C@@H](NC(=O)[C@@H](NC(=O)[C@H](CCCN=C(N)N)NC(=O)[C@@H](NC(=O)[C@@H](N)C(C)C)[C@@H](C)CC)[C@@H](C)O)C(C)C)C(C)C)C(=O)N[C@@H](CCCCN)C(=O)N[C@@H](CCCCN)C(=O)N[C@@H](CCCCN)C(=O)O` [VIRTVVAGYNLYRAIKKK], in [13], the MIC was no less than 35.8 µM.
The same measure, in the same setting: to `CC[C@H](C)[C@H](NC(=O)[C@H](C)NC(=O)[C@H](CCCN=C(N)N)NC(=O)[C@H](Cc1ccc(O)cc1)NC(=O)[C@H](CC(C)C)NC(=O)[C@H](CC(N)=O)NC(=O)[C@H](Cc1ccc(O)cc1)NC(=O)CNC(=O)[C@H](C)NC(=O)[C@@H](NC(=O)[C@@H](NC(=O)[C@@H](NC(=O)[C@H](CCCN=C(N)N)NC(=O)[C@@H](NC(=O)[C@@H](NC(=O)[C@@H](N)C(C)C)C(C)C)[C@@H](C)CC)[C@@H](C)O)C(C)C)C(C)C)C(=O)N[C@@H](CCCCN)C(=O)N[C@@H](CCCCN)C(=O)N[C@@H](CCCCN)C(=O)O` [VVIRTVVAGYNLYRAIKKK] belongs 25.7 µM (≈ 56.3 µg/mL).
For `CC[C@H](C)[C@H](NC(=O)[C@H](CC(C)C)NC(=O)[C@H](CC(C)C)NC(=O)[C@@H]1CCCN1C(=O)[C@H](CCCCN)NC(=O)[C@H](CC(C)C)NC(=O)[C@H](CCCCN)NC(=O)[C@@H]1CCCN1C(=O)[C@H](CC(C)C)NC(=O)[C@H](CC(C)C)NC(=O)[C@H](CC(C)C)NC(=O)[C@H](CCCCN)NC(=O)[C@H](CC(C)C)NC(=O)[C@H](CC(C)C)NC(=O)[C@H](CCCCN)NC(=O)[C@@H](N)Cc1ccc(O)cc1)C(=O)N[C@@H](CCCCN)C(=O)N[C@@H](CC(C)C)C(N)=O` [YKLLKLLLPKLKPLLIKL], the values for the minimal inhibitory concentration (MIC) in assay [14], in assay [4] and in assay [11] were 67.3 µM (≈ 144 µg/mL), 5.27 µM (≈ 11.3 µg/mL) and 2.28 µM (≈ 4.9 µg/mL), respectively.
